Measured values reported in US5438062A, “Benzo(5,6)cycloheptapyridines, compositions and methods of use” (Schering Corporation, priority 1987, dated 1995).

Assays:
[1] = tested on: histamine-induced lethality; experiment: Antihistamine activity: prevention of histamine-induced lethality in guinea pigs; format: in vivo; conditions: Cavia porcellus, guinea pig; for responders at 5 mg/kg: oral dose 5 mg/kg PO
Procedure: C. ANTIHISTAMINE ACTIVITY ASSAY
Prevention of Histamine-Induced Lethality in Guinea Pigs. Some of compounds shown below in Table I also were evaluated for antihistamine activity by their ability to protect female albino guinea pigs (250-350 g) against death induced by the intravenous injection of histamine dihydrochloride at 1.1 mg/kg, which is approximately twice the LD99. Doses of the antagonists were administered orally to separate groups of fasted animals 1 hour prior to the challenge with histamine and protection from death recorded for 30 minutes after histamine. ED50 values were determined for each drug by probit analysis.

[2] = tested on: PAF-induced bronchospasm; experiment: PAF-induced bronchospasm in guinea pigs; format: in vivo; conditions: guinea pig
Procedure: PAF is also a known bronchoconstrictive agent in mammals.
B. PAF-INDUCED BRONCHOSPASM IN GUINEA PIGS
Non-sensitized guinea Digs were fasted overnight, and the following morning were anesthetized with 0.9 ml/kg i.p. of dialurethane (0.1 g/ml of diallybarbituric acid, 0.4 g/ml of ethylurea and 0.4 g/ml of urethane). The trachea was cannulated and the animals were ventilated by a Harvard rodent respirator at 55 strokes/min. with a stroke volume of 4 ml. A side arm to the tracheal cannula was connected to a Harvard pressure transducer to obtain a continuous measure of intratracheal pressure, which was recorded on a Harvard Polygraph. The jugular vein was cannulated for the administration of compounds. The animals were challenged i.v. with PAF (0.4 ug/kg in isotonic saline containing 0.25% BSA) and the peak increase in inflation pressure that occurred within 5 min. after challenge was recorded. Test compounds were administered either orally (2 hrs. prior to PAF as a suspension in 0.4% methylcellulose vehicle) or intravenously (10 min. prior to PAF as a solution in dimethylsulfoxide).

[3] = tested on: PAF-induced platelet aggregation (platelet-rich plasma); experiment: PAF antagonism, in vitro platelet aggregation assay; format: cell-based; conditions: dose giving 50 % PAF antagonism, human PRP, PAF 1-5×10^-8 M
Procedure: Blood was centrifuged at 110×g for 15 min. and the supernatant PRP carefully transferred into a polypropylene tube. Platelet-poor-plasma (PPP) was prepared by centrifuging PRP at 12,000×g for 2 min. in a Beckman Microfuge B. PRP was used within 3 hours of drawing the blood.
Platelet Aggregation Assay: When an aggregating agent such as PAF is added to PRP, platelets aggregate. An aggregometer quantifies this aggregation by measuring light (infra-red) transmission through PRP and comparing to PPP. The aggregation assays were performed using a dual-channel aggregometer (Model 440, Chrono-Log Corp., Hayertown, Pa.). PRP (0.45 ml) in aggregometer curettes was continually stirred (37° C.). Solutions of test compounds or vehicle were added to the PRP, and after incubation for 2 min., 10-15 μl aliquots of PAF solution were added so as to achieve a final concentration of 1-5×10^-8 M. Incubations were continued until the increase in light transmission reached a maximum (usually about 2 min). Values for inhibition were calculated by comparing maximal aggregation obtained in the absence and the presence of the compound. For each experiment, a standard PAF antagonist, such as alprazolam, was used as a positive internal control. […] The test results are shown below in Tables Ia, Ib and Ic.

[4] = CNS activity: antagonism of electro-convulsive shock (ECS); conditions: mouse, in vivo; mice, oral, one hour before ECS; read-out: ECS test ED50
Procedure: F. Antagonism of Electro-Convulsive Shock (ECS). The ECS test is a third test useful for determining CNS activity. […] One hour after oral administration of the test drug or vehicle, mice were administered a 13 mA, 60 cycle a.c. electroconvulsant shock (ECS) for 0.2 seconds via corneal electrodes.

[5] = CNS activity: antagonism of acetic acid writhing; conditions: mouse, in vivo; mice, oral, 15 minutes before acetic acid i.p.
Procedure: E. Antagonism of Acetic Acid Writhing. The acetic acid writhing test is a second test useful for determining CNS activity, and is essentially that described by HENDERSHOT and FORSAITH, J. Pharmac. […] Mice were injected with 0.6% aqueous acetic acid at 10 mg/kg i.p. 15 minutes after oral administration of the test drug. The number of writhes for each animal was counted during a 10 minute period starting 3 minutes after acetic acid treatment. A writhe was defined as a sequence of arching of the back, pelvic rotation and hind limb extension.

[6] = CNS activity: antagonism of physostigmine lethality; conditions: mouse, in vivo; mice, oral, 30 minutes prior to physostigmine 1.0 mg/kg s.c.
Procedure: D. Antagonism of Physostigmine Lethality. The physostigmine-induced lethality test is indicative of CNS activity and the test described is a modification of the technique reported by COLLIER et al., Br. J. Pharmac., 32, 295-310 (1968). physostigmine salicylate (1.0 mg/kg s.c.) produces 100% lethality when administered to mice grouped 10 per plastic cage (11×26×13 cm). Test agents were administered orally 30 minutes prior to physostigmine. The number of survivors were counted 20 minutes after physostigmine administration.

[7] = 0.5 h, 1 hour before histamine 1.1 mg/kg i.v., read-out: Antihistaminic Activity, % Survival

Row | Structure (SMILES) | responders at 5 mg/kg [1, 7] | inhibition of PAF-induced bronchospasm ([2]; 3 mg/kg (iv)) | IC50 [3] | responders at 1 mg/kg ([1]; 0.5 h, oral dose 1 mg/kg PO, 1 hour before histamine 1.1 mg/kg i.v., read-out: Antihistaminic Activity, % Survival) | ED50 [4] | inhibition of PAF-induced bronchospasm ([2]; 1 mg/kg intravenously) | ED50 [5] | ED50 ([1]; oral, probit analysis, read-out: Antihistaminic Activity, ED50) | ED50 [6]
1 | CC(=O)N1CCC(=C2c3ccc(F)cc3CCc3cccnc32)CC1 [R = CH3, Z = O, R^3 = F, R^4 = H, 8-fluoro-11-(1-acetyl-4-piperidylidene)-6,11-dihydro-5H-benzo[5,6]cyclohepta[1,2-b]pyridine] | 20% | 99% | 700 nM |  |  |  |  |  | 
2 | CC(=O)N1CCC(=C2c3ccc(Cl)cc3CCc3cccnc32)CC1 [Z = O, R = CH3, R^3 = Cl, R^4 = H, 8-chloro-11-(1-acetyl-4-piperidylidene)-6,11-dihydro-5H-benzo[5,6]cyclohepta[1,2-b]pyridine] | 100% |  | 700 nM | 60% | > 320 mg/kg | 75% | > 160 mg/kg |  | 
3 | CN1CCC(=C2c3ccccc3CCc3cccnc32)CC1 [R^3 = H, R^4 = H, A = H, CZR = CH3, reference compound] |  |  | > 100000 nM |  | > 80 mg/kg |  | 8.9 mg/kg | 0.009 mg/kg | 6.1 mg/kg
